From patent US6720346B2, “Thiazole benzamide derivatives and pharmaceutical compositions for inhibiting cell proliferation” (Agouron Pharmaceuticals, Inc., priority 2001, dated 2004)

What was measured:
HCT-116 cell line = experiment: Inhibition of cell growth, MTT tetrazolium salt assay; type: cell-based; settings: for IC50: Homo sapiens, HCT-116, 120 h, MTT, three to five days
Procedure, shortened: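 Cells in McCoy's 5A medium were given 4 h before compound addition in 0.5% (v/v) DMSO, then incubated 3–5 days at 37 °C, 5% CO2. After 4 h with 0.2 mg/mL MTT, DMSO-solubilized formazan was read at 540 nm; 50% and 90% growth-inhibitory concentrations came from semi-log plots against vehicle controls.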

human CDK4/cyclin D3 = biological target: T1, human CDK4/cyclin D3 (Homo sapiens, UniProt P11802); experiment: Inhibition of CDK4/cyclin D retinoblastoma kinase activity (Ki; % inhibition); type: biochemical; settings: for Ki: apparent Ki, CDK4/cyclin D3, Rb substrate
T1 construct: made in house; host or cells: insect cells co-infected with baculovirus vectors
Procedure, shortened: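 Radiometric filter-binding read-out: Rb residues 386-928 phosphorylated by 5 nM CDK4/cyclin D3(1-264) from baculovirus-infected insect cells, 25 μM ATP, HEPES pH 7.4, 30 °C. Run 20 min, or 60 min for tight-binding inhibitors. Screening at 30 nM theoretical compound; apparent Ki by competitive-inhibition fitting.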

CDK2/cyclin A = biological target: T2, CDK2/cyclin A (Homo sapiens, UniProt P24941); experiment: Inhibition of CDK2/cyclin A retinoblastoma kinase activity (Ki; % inhibition); type: biochemical; settings: for Ki: apparent Ki, CDK2/cyclin A, Rb substrate
T2 construct: made in house; host or cells: CDK2: insect cells (baculovirus); cyclin A: E. coli
Procedure, shortened: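 Apparent Ki values came from fitting concentration-dependent activity data to competitive (or competitive tight-binding) models, and % inhibition from single 30 nM screens of library compounds. Activity was measured as ³²P/³³P incorporation from 25 μM ATP into an Rb substrate by 10 or 19 nM CDK2/delta cyclin A at 30 °C over 60–75 min, pH 7.4.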

[1] = HCT-116 cells, 0.25 μM compound

T1 sequence (P11802 whole entry): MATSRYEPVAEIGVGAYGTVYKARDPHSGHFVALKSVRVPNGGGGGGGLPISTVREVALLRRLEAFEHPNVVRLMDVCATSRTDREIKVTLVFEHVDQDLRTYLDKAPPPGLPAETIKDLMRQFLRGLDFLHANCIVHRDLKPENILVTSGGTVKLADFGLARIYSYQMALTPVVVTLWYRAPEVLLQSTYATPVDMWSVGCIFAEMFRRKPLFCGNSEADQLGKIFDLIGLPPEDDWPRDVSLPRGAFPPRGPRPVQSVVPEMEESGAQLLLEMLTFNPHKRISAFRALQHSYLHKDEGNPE
T1 sequence (P30281 1-264 partner limits assumed): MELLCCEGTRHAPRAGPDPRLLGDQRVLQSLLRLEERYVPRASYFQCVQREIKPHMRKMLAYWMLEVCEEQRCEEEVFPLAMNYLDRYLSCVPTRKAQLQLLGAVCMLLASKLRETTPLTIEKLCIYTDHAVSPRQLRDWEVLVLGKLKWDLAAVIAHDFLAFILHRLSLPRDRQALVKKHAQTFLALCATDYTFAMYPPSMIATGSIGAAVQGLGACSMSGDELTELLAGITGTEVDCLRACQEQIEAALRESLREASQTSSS

| Compound | HCT-116 % Inhibition at 0.25 μM (HCT-116 cell line; HCT-116, at 0.25 μM) | CDK4 % Inhibition at 0.03 μM (human CDK4/cyclin D3; at 0.03 μM) | CDK2 % Inhibition at 0.03 μM (CDK2/cyclin A; at 0.03 μM) | HCT-116 % Inhibition at 0.1 μM (HCT-116 cell line; HCT-116 cells, 0.1 μM compound) | HCT-116 % Inhibition at 0.25 μM (HCT-116 cell line; [1]) | CDK4 % Inhibition at 0.03 μM (human CDK4/cyclin D3; 0.03 μM compound) | CDK2 % Inhibition at 0.03 μM (CDK2/cyclin A; 0.03 μM compound) | other results |
| --- | --- | --- | --- | --- | --- | --- | --- | --- |
| Nc1nc(Nc2ccc(C(=O)Nc3ccc(CCO)cc3)cc2)sc1C(=O)c1c(F)cccc1F [Example A24, 4-[4-Amino-5-(2,6-difluoro-benzoyl)-thiazol-2-ylamino]-N-[4-(2-hydroxy-ethyl)-phenyl]-benzamide] |  |  |  |  |  |  |  | IC50 (HCT-116 cell line): 160 nM; Ki (human CDK4/cyclin D3): 94 nM; Ki (CDK2/cyclin A): 100 nM |
| CN(CC1CC1)C(C)(C)CNC(=O)c1ccc(Nc2nc(N)c(C(=O)c3c(F)cccc3F)s2)cc1 [Example A39] |  |  |  |  |  |  |  | IC50 (HCT-116 cell line): 170 nM; Ki (human CDK4/cyclin D3): 11 nM; Ki (CDK2/cyclin A): 160 nM |
| Nc1nc(Nc2ccc(C(=O)NC3Cc4ccccc4C3)cc2)sc1C(=O)c1c(F)cccc1F [Example A22, 4-[4-Amino-5-(2,6-difluoro-benzoyl)-thiazol-2-ylamino]-N-indan-2-yl-benzamide] |  |  |  |  |  |  |  | IC50 (HCT-116 cell line): 170 nM; Ki (human CDK4/cyclin D3): 5 nM; Ki (CDK2/cyclin A): 6 nM |
| COc1ccc(NC(=O)c2ccc(Nc3nc(N)c(C(=O)c4c(F)cccc4F)s3)cc2)cc1 [Example G54] | 86% | 9% | 8% |  |  |  |  |  |
| Nc1nc(Nc2ccc(C(=O)NCCc3ccc(Cl)cc3)cc2)sc1C(=O)c1c(F)cccc1F [Example G266] |  |  |  | 28% | 30% | 7% | 0% |  |
| Nc1nc(Nc2ccc(C(=O)N3CCSC3)cc2)sc1C(=O)c1c(F)cccc1F [Example G33] | 54% | 10% | −3% |  |  |  |  |  |
| COc1cccc(CCNC(=O)c2ccc(Nc3nc(N)c(C(=O)c4c(F)cccc4F)s3)cc2)c1 [Example G193] | 56% | 26% | 19% |  |  |  |  | HCT-116 % Inhibition at 0.1 μM (HCT-116 cell line; HCT-116, at 0.1 μM): 17% |
| C[C@H](NC(=O)c1ccc(Nc2nc(N)c(C(=O)c3c(F)cccc3F)s2)cc1)c1ccccc1 [Example G167] | 53% | 29% | 19% |  |  |  |  | HCT-116 % Inhibition at 0.1 μM (HCT-116 cell line; HCT-116, at 0.1 μM): 26% |
| N#CCCNc1ccccc1NC(=O)c1ccc(Nc2nc(N)c(C(=O)c3c(F)cccc3F)s2)cc1 [Example G323] |  |  |  | 14% | 72% | 7% | −14% |  |
| CC(CCCC(C)(C)O)NC(=O)c1ccc(Nc2nc(N)c(C(=O)c3c(F)cccc3F)s2)cc1 (stereo not drawn) [Example G237] |  |  |  | 20% | 49% | 12% | 9% |  |
| CCCOCCNC(=O)c1ccc(Nc2nc(N)c(C(=O)c3c(F)cccc3F)s2)cc1 [Example G165] | 61% | 22% | 1% |  |  |  |  | HCT-116 % Inhibition at 0.1 μM (HCT-116 cell line; HCT-116, at 0.1 μM): 0% |
| Nc1nc(Nc2ccc(C(=O)NCCc3ccc(Cl)c(Cl)c3)cc2)sc1C(=O)c1c(F)cccc1F [Example G211] |  |  |  | 13% | 45% | 23% | 23% |  |
| CCOC(CNC(=O)c1ccc(Nc2nc(N)c(C(=O)c3c(F)cccc3F)s2)cc1)OCC [Example G344] |  |  |  | 24% | 50% | 18% | 25% |  |
| Nc1nc(Nc2ccc(C(=O)NCCc3ccc(Cl)cc3Cl)cc2)sc1C(=O)c1c(F)cccc1F [Example G196] | 48% | 13% | 7% |  |  |  |  | HCT-116 % Inhibition at 0.1 μM (HCT-116 cell line; HCT-116, at 0.1 μM): 13% |
| Nc1nc(Nc2ccc(C(=O)NCc3ccccc3C(F)(F)F)cc2)sc1C(=O)c1c(F)cccc1F [Example G269] |  |  |  | 19% | 65% | 2% | 6% |  |
| CCOc1cccc(NC(=O)c2ccc(Nc3nc(N)c(C(=O)c4c(F)cccc4F)s3)cc2)c1 [Example G16] | 50% | 1% | −7% |  |  |  |  |  |
| Cc1ccc(CNC(=O)c2ccc(Nc3nc(N)c(C(=O)c4c(F)cccc4F)s3)cc2)cc1C [Example G338] |  |  |  | 18% | 54% | 27% | 31% |  |
| COCCCNC(=O)c1ccc(Nc2nc(N)c(C(=O)c3c(F)cccc3F)s2)cc1 [Example G98] | 60% | 11% | −24% |  |  |  |  | HCT-116 % Inhibition at 0.1 μM (HCT-116 cell line; HCT-116, at 0.1 μM): 22% |
| COC(CNC(=O)c1ccc(Nc2nc(N)c(C(=O)c3c(F)cccc3F)s2)cc1)OC [Example G97] | 56% | 11% | 2% |  |  |  |  | HCT-116 % Inhibition at 0.1 μM (HCT-116 cell line; HCT-116, at 0.1 μM): 28% |
| CCOC(=O)/C=C/c1ccc(NC(=O)c2ccc(Nc3nc(N)c(C(=O)c4c(F)cccc4F)s3)cc2)cc1 [Example G114] | 48% | 11% | −3% |  |  |  |  | HCT-116 % Inhibition at 0.1 μM (HCT-116 cell line; HCT-116, at 0.1 μM): 0% |
| CC1CC(C)CN(C(=O)c2ccc(Nc3nc(N)c(C(=O)c4c(F)cccc4F)s3)cc2)C1 (stereo not drawn) [Example G273] |  |  |  | 17% | 45% | −2% | −33% |  |
| CCCN(CCc1ccccn1)C(=O)c1ccc(Nc2nc(N)c(C(=O)c3c(F)cccc3F)s2)cc1 [Example G322] |  |  |  | 13% | 50% | 4% | −12% |  |
| Nc1nc(Nc2ccc(C(=O)NCc3ccccc3Cl)cc2)sc1C(=O)c1c(F)cccc1F [Example G228] |  |  |  | 24% | 75% | 36% | 38% |  |
| Nc1nc(Nc2ccc(C(=O)Nc3cccc4ncccc34)cc2)sc1C(=O)c1c(F)cccc1F [Example G67] | 82% | 12% | 25% |  |  |  |  |  |
| CCCCN(C)C(=O)c1ccc(Nc2nc(N)c(C(=O)c3c(F)cccc3F)s2)cc1 [Example G218] |  |  |  | 11% | 52% | 19% | 8% |  |
| CC(O)c1cccc(NC(=O)c2ccc(Nc3nc(N)c(C(=O)c4c(F)cccc4F)s3)cc2)c1 (stereo not drawn) [Example G222] |  |  |  | 8% | 61% | 27% | 30% |  |
| Nc1nc(Nc2ccc(C(=O)Nc3cccc(O)c3)cc2)sc1C(=O)c1c(F)cccc1F [Example G378] |  |  |  | 27% | 60% | 8% | 40% |  |
| Nc1nc(Nc2ccc(C(=O)NCCc3cccs3)cc2)sc1C(=O)c1c(F)cccc1F [Example A26, 4-[4-Amino-5-(2,6-difluoro-benzoyl)-thiazol-2-ylamino]-N-(2-thiophen-2-yl-ethyl)-benzamide] |  |  |  |  |  |  |  | IC50 (HCT-116 cell line): 170 nM; Ki (human CDK4/cyclin D3): 20 nM; Ki (CDK2/cyclin A): 79 nM |
| CCCCN(CCCCO)C(=O)c1ccc(Nc2nc(N)c(C(=O)c3c(F)cccc3F)s2)cc1 [Example G340] |  |  |  | 28% | 40% | 9% | −12% |  |
